Measurements taken from patent US8450304B2, “4-azetidinyl-1-heteroaryl-cyclohexanol antagonists of CCR2” (Janssen Pharmaceutica N.V., priority 2008, dated 2013).

Molecular target: T1, CCR2 (Homo sapiens, UniProt P41597)
T1 construct: host or cells: THP-1 (human monocytic cell line), whole cells
Test: MCP-1 Receptor Binding Assay in THP-1 Cells
Details: 0.5 nM 125I labeled MCP-1, 2 hours at 30° C., read-out: Inhibition of MCP-1 Binding IC50, CCR2 Binding
Experimental: Compounds of the invention were subjected to various representative biological tests. […] MCP-1 Receptor Binding Assay in THP-1 Cells
Human monocytic cell line THP-1 cells were obtained from American Type Culture Collection (Manassas, Va., USA). […] The cell density was maintained […].
1 μM cold MCP-1 was used for nonspecific binding.

T1 sequence (P41597 whole entry): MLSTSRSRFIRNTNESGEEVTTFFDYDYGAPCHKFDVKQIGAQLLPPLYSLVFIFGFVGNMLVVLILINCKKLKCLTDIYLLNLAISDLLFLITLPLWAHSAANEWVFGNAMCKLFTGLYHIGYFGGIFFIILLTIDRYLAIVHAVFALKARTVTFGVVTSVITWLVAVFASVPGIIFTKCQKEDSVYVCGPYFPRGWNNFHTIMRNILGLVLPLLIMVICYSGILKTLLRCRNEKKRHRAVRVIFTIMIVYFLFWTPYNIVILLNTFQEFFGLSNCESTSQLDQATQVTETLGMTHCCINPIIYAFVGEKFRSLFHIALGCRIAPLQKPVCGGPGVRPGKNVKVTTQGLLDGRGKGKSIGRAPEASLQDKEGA

Compound | IC50 [nM]
COc1ncc(C2(O)CCC(N3CC(NC(=O)CNC(=O)c4cccc(C(F)(F)F)c4)C3)CC2)c(OC)n1 (single isomer, unassigned) [Example 29a, N-({1-[4-(2,4-Dimethoxy-pyrimidin-5-yl)-4-hydroxy-cyclohexyl]-azetidin-3-ylcarbamoyl}-methyl)-3-trifluoromethyl-benzamide] | 24000
CC(C)(C)Oc1ncc(C2(O)CCC(N3CC(NC(=O)CNC(=O)c4cccc(C(F)(F)F)c4)C3)CC2)s1 (stereo not drawn) [Example 54, N-({1-[4-(2-tert-Butoxy-thiazol-5-yl)-4-hydroxy-cyclohexyl]-azetidin-3-ylcarbamoyl}-methyl)-3-trifluoromethyl-benzamide] | 280
Cn1cc(Br)c(C2(O)CCC(N3CC(NC(=O)CNC(=O)c4cccc(C(F)(F)F)c4)C3)CC2)n1 (single isomer, unassigned) [Example 31a, N-({1-[4-(4-Bromo-1-methyl-1H-pyrazol-3-yl)-4-hydroxy-cyclohexyl]-azetidin-3-ylcarbamoyl}-methyl)-3-trifluoromethyl-benzamide] | 440
CN(C)Cc1ncc(C2(O)CCC(N3CC(NC(=O)CNC(=O)c4cccc(C(F)(F)F)c4)C3)CC2)s1 (stereo not drawn) [Example 56, N-({1-[4-(2-Dimethylaminomethyl-thiazol-5-yl)-4-hydroxy-cyclohexyl]-azetidin-3-ylcarbamoyl}-methyl)-3-trifluoromethyl-benzamide] | 310
COc1ccc(C2(O)CCC(N3CC(NC(=O)CNC(=O)c4cc(F)c(F)c(F)c4)C3)CC2)cn1 (stereo not drawn) [Example 17, 3,4,5-Trifluoro-N-({1-[4-hydroxy-4-(6-methoxy-pyridin-3-yl)-cyclohexyl]-azetidin-3-ylcarbamoyl}-methyl)-benzamide] | 6400
O=C(CNC(=O)c1cccc(C(F)(F)F)c1)NC1CN(C2CCC(O)(c3cc(Br)cs3)CC2)C1 (stereo not drawn) [Example 60, N-({1-[4-(4-Bromo-thiophen-2-yl)-4-hydroxy-cyclohexyl]-azetidin-3-ylcarbamoyl}-methyl)-3-trifluoromethyl-benzamide] | 230
COc1ccc(C2(O)CCC(N3CC(NC(=O)CNC(=O)c4cccc(C#N)c4)C3)CC2)cn1 (stereo not drawn) [Example 21, 3-Cyano-N-({1-[4-hydroxy-4-(6-methoxy-pyridin-3-yl)-cyclohexyl]-azetidin-3-ylcarbamoyl}-methyl)-benzamide] | 7500
COc1ccc(C2(O)CCC(N3CC(NC(=O)CNC(=O)c4cccc(Cl)c4)C3)CC2)cn1 (stereo not drawn) [Example 24, 3-Chloro-N-({1-[4-hydroxy-4-(6-methoxy-pyridin-3-yl)-cyclohexyl]-azetidin-3-ylcarbamoyl}-methyl)-benzamide] | 1600
Cc1ccc(C2(O)CCC(N3CC(NC(=O)CNC(=O)c4cc(C(F)(F)F)cc(C(F)(F)F)c4)C3)CC2)cn1 (single isomer, unassigned) [Example 66a, N-({1-[4-Hydroxy-4-(6-methyl-pyridin-3-yl)-cyclohexyl]-azetidin-3-ylcarbamoyl}-methyl)-3,5-bis-trifluoromethyl-benzamide] | 330
COc1cccc(C(=O)NCC(=O)NC2CN(C3CCC(O)(c4ccc(OC)nc4)CC3)C2)c1 (stereo not drawn) [Example 23, N-({1-[4-Hydroxy-4-(6-methoxy-pyridin-3-yl)-cyclohexyl]-azetidin-3-ylcarbamoyl}-methyl)-3-methoxy-benzamide] | 14500
O=C(CNC(=O)c1cccc(C(F)(F)F)c1)NC1CN(C2CCC(O)(c3nc4ccccc4o3)CC2)C1 (stereo not drawn) [Example 63, N-{[1-(4-Benzooxazol-2-yl-4-hydroxy-cyclohexyl)-azetidin-3-ylcarbamoyl]-methyl}-3-trifluoromethyl-benzamide] | 1000
O=C(CNC(=O)c1cccc(C(F)(F)F)c1)NC1CN(C2CCC(O)(c3ncc(CO)s3)CC2)C1 (single isomer, unassigned) [Example 35a, N-({1-[4-Hydroxy-4-(5-hydroxymethyl-thiazol-2-yl)-cyclohexyl]-azetidin-3-ylcarbamoyl}-methyl)-3-trifluoromethyl-benzamide] | 240
